Read-outs that look alike come from different tables or passages of the source.
Legend:
[1] = test system: lung cancer cells (line MV522); assay: Cancer cell proliferation (MV522) assay; format: cell-based
Procedure: The protocol for assessing cellular proliferation in cancer cells is similar to that used for assessments in HUVEC cells. Two thousand lung cancer cells (line MV522, acquired from American Tissue Cultural Collection) were seeded in growth media (RPMI1640 medium supplemented with 2 mM glutamine and 10% FBS). Cells are allowed to attach for 1 day prior to addition of test agents and /or vehicles. Cells are treated simultaneously with the same test agents used in the HUVEC assay. Cellular proliferation is quantified by MTT dye reduction assay 72 hours after exposure to test agents. The total length of the assay is 4 days vs. 5 for HUVEC cells because MV522 cells are not exposed to starvation medium.

[2] = in vitro; format: in vitro ADME, human; details: human liver microsomes, 5 µM test compound, 37 °C, 2 h
How it was run: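 HLM diluted to 5 mg/mL in 100 mM KPO4, preincubated 10 min at 37 °C with NADPH-regenerating system. Compound (5 µM final) incubated at 37 °C in triplicate, sampled at 0 and 2 h into ice-cold acetonitrile, then LC-MS analysis.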

[3] = biological target: human FGF-R1 (Homo sapiens, UniProt P11362, C488A/C584S/L457V); assay: FGF-R spectrophotometric assay; format: biochemical; details: for inhibition at 1 µM: Table 1, compound concentration 1 µM, read-out: FGF-P* (% inhibition)
human FGF-R1, sequence (P11362 456-766 L457V/C488A/C584S): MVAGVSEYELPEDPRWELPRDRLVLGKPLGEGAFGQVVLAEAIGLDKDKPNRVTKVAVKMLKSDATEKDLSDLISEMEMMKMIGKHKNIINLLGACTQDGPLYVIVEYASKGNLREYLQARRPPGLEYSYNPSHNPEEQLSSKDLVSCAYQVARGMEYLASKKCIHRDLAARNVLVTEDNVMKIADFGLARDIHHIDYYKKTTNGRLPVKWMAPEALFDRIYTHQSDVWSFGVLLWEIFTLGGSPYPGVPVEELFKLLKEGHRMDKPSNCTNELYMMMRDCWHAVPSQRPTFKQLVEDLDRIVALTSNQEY
Procedure: The spectrophotometric assay was carried out as described above for VEGF-R2, except for the following changes in concentration: FGF-R = 50 nM, ATP = 2 mM, and poly(E4Y1) =15 mM.

[4] = biological target: T1, phosphorylated Tie-2 (aa 775-1122) (Homo sapiens, UniProt Q02763); assay: TIE-2 spectrophotometric assay; format: biochemical; details: Table 5; 1 µM; bold values spectrophotometric assay, non-bolded DELFIA assay (bold not visible here); read-out: % Inhibition @ 1 µM Tie2-P
T1 construct: 4 to 12 nM phosphorylated Tie-2 (aa 775-1122); made in house; host or cells: insect cells
T1 sequence (Q02763 775-1122): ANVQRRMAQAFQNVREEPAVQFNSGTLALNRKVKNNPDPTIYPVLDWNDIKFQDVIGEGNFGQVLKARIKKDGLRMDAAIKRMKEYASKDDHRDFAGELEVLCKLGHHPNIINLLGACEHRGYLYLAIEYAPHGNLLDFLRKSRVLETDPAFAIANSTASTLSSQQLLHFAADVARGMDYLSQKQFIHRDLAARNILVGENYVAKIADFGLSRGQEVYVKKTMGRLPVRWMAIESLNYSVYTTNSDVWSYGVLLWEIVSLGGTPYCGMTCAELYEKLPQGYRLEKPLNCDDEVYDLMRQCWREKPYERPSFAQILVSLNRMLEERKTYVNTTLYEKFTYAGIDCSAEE
Procedure: This construct also carries a R774M mutation, which serves as the initiating methionine residue in translation.
The kinase-catalyzed production of ADP from ATP that accompanies phosphoryl transfer to the random copolymer poly(Glu4 Tyr) was coupled to the oxidation of NADH through the activities of pyruvate kinase (PK) and lactate dehydrogenase (LDH). NADH conversion to NAD* was monitored by the decrease in absorbance at 340 nm (ε = 6.22 cm^-1mM^-1) using a Beckman DU650 spectrophotometer. Typical reaction solutions contained 1 mM phosphoenolpyruvate, 0.24 mM NADH, 40 mM MgCl2, 5 mM DTT, 2.9 mg/mL poly(Glu4Tyr), 0.5 mM ATP, 15 units/mL PK, 15 units/mL LDH in 100 mM HEPES, pH 7.5. […]

[5] = test system: human umbilical vein endothelial cells (HUVEC); assay: HUVEC proliferation assay (VEGF-stimulated, MTT); format: cell-based; details: Homo sapiens, HUVEC, Table 1
[6] = biological target: LCK tyrosine kinase (Homo sapiens, UniProt P06239, C224D/P223M); assay: LCK spectrophotometric assay; format: biochemical; details: Table 1; compound concentration 1 µM; read-out: Lck-P* (% inhibition)
LCK tyrosine kinase, sequence (P06239 223-509 P223M/C224D): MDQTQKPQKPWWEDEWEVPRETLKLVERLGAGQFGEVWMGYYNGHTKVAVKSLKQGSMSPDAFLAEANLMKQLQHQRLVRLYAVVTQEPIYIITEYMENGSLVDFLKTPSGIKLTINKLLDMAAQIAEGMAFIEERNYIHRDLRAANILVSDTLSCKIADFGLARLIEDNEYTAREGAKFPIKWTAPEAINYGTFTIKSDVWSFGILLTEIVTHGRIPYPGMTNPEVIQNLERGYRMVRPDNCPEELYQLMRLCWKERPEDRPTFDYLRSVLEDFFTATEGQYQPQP
Procedure: The spectrophotometric assay was carried out as described above for VEGF-R2, except for the following changes in concentration: LCK = 60 nM, MgCl2 = 0 mM, poly(E4Y1) = 20 mM.

[7] = biological target: unphosphorylated VEGF-R2Δ50 (Homo sapiens, UniProt P35968, DEL940-989/E990V); assay: biochemical; details: read-out: FLVK ** (% inhibition)
unphosphorylated VEGF-R2Δ50, sequence (P35968 with tags, fused parts or gaps DEL940-989/E990V limits assumed): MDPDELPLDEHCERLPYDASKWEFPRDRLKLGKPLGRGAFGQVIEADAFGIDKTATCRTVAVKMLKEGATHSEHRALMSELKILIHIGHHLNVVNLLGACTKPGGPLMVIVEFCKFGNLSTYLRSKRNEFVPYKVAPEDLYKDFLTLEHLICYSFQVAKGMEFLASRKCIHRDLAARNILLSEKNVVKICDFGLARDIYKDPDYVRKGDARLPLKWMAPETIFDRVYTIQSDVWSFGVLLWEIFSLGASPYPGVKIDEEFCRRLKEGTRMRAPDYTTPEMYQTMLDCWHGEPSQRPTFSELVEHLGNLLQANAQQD

[8] = in vivo; details: mouse, plasma, pH 2.3
[9] = test system: VEGF dependent retinal neovascularization; assay: Neonatal rat model of retinopathy of prematurity; format: in vivo; details: Model ROP, intravitreal, vehicle PEG/water 70:30
Procedure: A second model of VEGF dependent retinal neovascularization was employed to evaluate the activities of this series of compounds. […] The animals are exposed for 24 hours to a concentration of 50% oxygen followed by 24 hours at a concentration of 10% oxygen. This alternating cycle of hyperoxia followed by hypoxia is repeated 7 times after which the animals are removed to room air (P14). Compounds are administered via intravitreal injection upon removal to room air and the animals are sacrificed 6 days later (P20). The isolated retinas are then isolated, stained mounted and analyzed as detail above in the development model. The effectiveness was also graded as is described for the development model.

[10] = test system: VEGF dependent retinal vascular development; assay: In vivo assay of retinal vascular development in neonatal rats; design: species or system rat; details: Model P8, intravitreal, 5 mg/ml
Procedure: The development of the retinal vascular in rats occurs from postnatal day 1 to postnatal day 14 (P1-P14). […] To assess the ability of specific compounds to inhibit the activity of VEGF in vivo, compounds were formulated in an appropriate vehicle, usually 50% polyethylene glycol, average molecular weight 400 daltons, and 50% solution of 300 mM sucrose in deionized water. […] Six days after the intravitreal injection, the animals were sacrificed and the retinas dissected free from the remaining ocular tissue. […] The individual retinas are then flat-mount onto glass slides and examined to determine the extent of vascularization. […] The amount of vessel regression was used to assess the relative potency of the compounds after in vivo administration.
For more quantitative analysis of regression, images of ADPase-stained, flat-mounted retinas were captured with a digital camera attached to a dissecting microscope. Retinal images were then imported into an image analysis software (Image Pro Plus 4.0, Media Cybernetics, Silver Spring, MD). The software was employed to determine the percentage of the area of the retina that contained stained vessels. This value for the experimental eye was compared to that measured for the vehicle injected, contralateral eye from the same animal. The reduction in the vascular area seen in the eye that received compound as compared to the vehicle-injected eye was then expressed as the "percent regression" for that sample.

[11] = MV522, Table 1, read-out: MV522 IC50
[12] = + albumin, read-out: HUVEC + albumin IC50
[13] = PO, 50 mg/kg, vehicle PEG400:H2O pH 2.3 60:40
[14] = mouse, in vivo, ip, 25 mg/kg, pH 2.3
[15] = mouse, in vivo, po, 50 mg/kg, pH 2.3
[16] = IP, 25 mg/kg, vehicle PEG400:H2O pH 2.3 30:70
[17] = PO, 50 mg/kg, vehicle PEG400:H2O pH 2.3 30:70

| Structure (SMILES) | IC50 [1, 11] [µM] | IC50 [5, 12] [nM] | IC50 ([5]; read-out: HUVEC IC50) [nM] | inhibition at 1 µM [6] [%] | inhibition at 1 µM [3] [%] | further results |
| --- | --- | --- | --- | --- | --- | --- |
| COc1cc(-c2ccc3c(-c4ccc5ccccc5c4)n[nH]c3c2)ccc1O [2(a), 3-(Naphthalen-2-yl)-6-(3-methoxy-4-hydroxy-phenyl)-1H-indazole] | – | – | – | – | – | IC50 ([1]; MV522, read-out: MV522 IC50 (µM)): 0.58 µM |
| CC(=O)Nc1cccc(Oc2ccc3c(/C=C/c4ccccc4)n[nH]c3c2)c1 [4(b), N-[3-(3-Styryl-1H-indazol-6-yloxy)-phenyl]-acetamide] | 3.2 | 205 | 25 | 13 | – | remaining at 2 h, 5 µM ([2]; read-out: % remain (HLM, 2 h)): 63%; Ki [3]: 4.9 nM; inhibition at 1 µM [4]: 29% |
| Cc1cnc(C(=O)Nc2cccc(Oc3ccc4c(/C=C/c5ccccc5)n[nH]c4c3)c2)s1 [5(a), 5-Methyl-thiazole-2-carboxylic acid {3-(3-styryl-1H-indazol-6-yloxy)-phenyl]-amide] | 9.6 | – | 12 | 28 | – | inhibition at 1 µM [4]: 44% |
| CC(=O)Nc1cccc(N(C)c2ccc3c(/C=C/c4ccccc4)n[nH]c3c2)c1 [12(a), N-{3-[Methyl-(3-styryl-1H-indazol-6-yl)-amino]-phenyl]-acetamide] | 2.1 | 87 | 6 | 17 | – | – |
| O=C(c1cccc(NC(=O)c2cccc3[nH]ccc23)c1)c1ccc2c(/C=C/c3ccccc3)n[nH]c2c1 [19(f), 6-[3-(indol-4-ylcarboxamido)benzoyl]-3-E-styryl-1H-indazole] | 3.9 | 16 | 2.3 | 52 | 58 | % remain (HLM, 2 h) [2]: 98% |
| CC(C)C(=O)Nc1cccc(C(=O)c2ccc3c(/C=C/c4ccccc4)n[nH]c3c2)c1 [19(h), 6-[3-(2-methylpropionamido)benzoyl]-3-E-styryl-1H indazole] | 7.9 | – | 600 | – | – | – |
| O=C(c1cccc(NC(=O)c2ccccn2)c1)c1ccc2c(/C=C/c3ccccc3)n[nH]c2c1 [19(k), 6-[3-(pyridin-2-ylcarboxamido)benzoyl)-3-E-styryl-1H-indazole] | 4 | – | 2.6 | 37 | 41 | inhibition at 0.05 µM [7]: 100%; % remain (HLM, 2 h) [2]: 58%; AUC ([8]; ip, 25 mg/kg): 428 ng·h/mL; AUC ([8]; po, 50 mg/kg): 19 ng·h/mL; T1/2 (IP, 25 mg/kg, vehicle PEG400:H2O pH 2.3 60:40): 2.2 h; Cmin (7 hr conc.) [13]: 4 ng/mL; T1/2 [13]: 2.2 h |
| O=C(c1cccc(NC(=O)c2cc(Cl)ccn2)c1)c1ccc2c(/C=C/c3ccccc3)n[nH]c2c1 [19(n), 6-[3-(4-chloropyridin-2-ylcarboxamido)benzoyl)-3-E-styryl-1H-indazole] | 2.9 | 23 | 3.4 | 26 | 48 | – |
| CC(=O)Nc1cccc(Sc2ccc3c(/C=C/c4ccccc4)n[nH]c3c2)c1 [20(a), 6-(3-Acetamido-phenylsulfanyl)-3-styryl-1H-indazole] | 9.4 | – | 200 | – | – | – |
| C=C(c1cccc(NC(=O)c2ccccc2)c1)c1ccc2c(/C=C/c3ccccc3)n[nH]c2c1 [22(b), 6-(1-(3-(Benzoylamido)phenyl)-vinyl)-3-styryl-1H-indazole] | 8.5 | – | 4.8 | – | – | – |
| C/C=C/C(=O)Nc1cccc(C(=O)c2ccc3c(/C=C/c4ccccn4)n[nH]c3c2)c1 [41 (c)] | – | – | – | – | – | % Inhibition ([9]; 1 mg/ml): 16%; % Inhibition ([9]; 10 mg/ml): 54%; Initial Evaluation ([9]; 10 mg/ml): +++ (three pluses give to retinas with near total regression (approximately 75% or greater)); Initial Evaluation ([10]; vehicle PEG/water 50:50): ++ (two pluses being judged to be approximately 25-75 % regression); AUCleast [14]: 3397 ng·h/mL; T1/2 [14]: 1.7 h; AUCleast [15]: 3182 ng·h/mL; T1/2 [15]: 2.6 h |
| O=C(Nc1cccc(C(=O)c2ccc3c(-c4nc5cccnc5[nH]4)n[nH]c3c2)c1)c1ccccc1 [Example 42(d), 6-(3-benzamidobenzoyl)-3-(3H-imidazo[4,5-b]pyridin-2-yl)-1H-indazole] | > 10 | – | – | – | – | – |
| O=C(Nc1cccc(Oc2ccc3c(/C=C/c4ccccn4)n[nH]c3c2)c1)c1ccccc1 [Reference Example 31(a), 6-[3-benzamidophenoxy]-3-E-[2-(Pyridin-2-yl)ethenyl]-1H-indazole] | – | 10 | 0.7 | 77 | 95 | % remain (HLM, 2 h) [2]: 58%; AUC ([8]; ip, 25 mg/kg): 47500 ng·h/mL; AUC ([8]; po, 50 mg/kg): 40900 ng·h/mL; % Inhibition ([10]; vehicle PEG/water 70:30): 46%; T1/2 [16]: 2.4 h; T1/2 [17]: 1.6 h |
| Cc1cc(C(=O)Nc2cccc(Oc3ccc4c(/C=C/c5ccccn5)n[nH]c4c3)c2)nn1C [Reference Example 31(b), 6-[3-((1,5-Dimethyl-1H-pyrazol-3-yl)carboxamido)phenoxy]-3-E-[2-(pyridin-2-yl)ethenyl)-1H-indazole] | – | 5.6 | – | 66 | 97 | AUC ([8]; ip, 25 mg/kg): > 7040 ng·h/mL; AUC ([8]; po, 50 mg/kg): 2070 ng·h/mL; % Inhibition ([10]; vehicle PEG/water 50:50): 32%; T1/2 [16]: 1.7 h; T1/2 [17]: 1.0 h |
| O=C(Nc1cccc(Cl)c1)c1ccccc1Sc1ccc2c(/C=C/c3ccccn3)n[nH]c2c1 [Reference Example 33(d), 6-[2-(3-chlorophenylcarbamoyl)phenylsulfanyl]-3-E-[2-(pyridin-2-yl)ethenyl]-1H-indazole] | 8 | > 300 | – | 55 | – | % remain (HLM, 2 h) [2]: 22% |

Reference: patent EP1614683B1, “Indazole compounds and pharmaceutical compositions for inhibiting protein kinases, and methods for their use” (priority 1999, dated 2001)
